Measured values published in US5726159A, “Antithrombotic agents” (Eli Lilly and Company, priority 1995, dated 1998).
Structures can show the parent of a compound that is named as a salt.

Experiments:
Format in all cases: biochemical
human thrombin = human thrombin (Homo sapiens, UniProt P00734); assay: Inhibition of thrombin amidase activity (Kass), chromogenic substrate; details: association constant, mean over concentrations
Bovine trypsin = biological target: T1, Bovine trypsin (Bos taurus, UniProt P00760); assay: Kass for trypsin, chromogenic substrate
T1 construct: Bovine trypsin is purchased from Worthington Biochemicals, Freehold, N.J; purchased Worthington Biochemicals, Freehold, N.J
T1 sequence (P00760 24-246): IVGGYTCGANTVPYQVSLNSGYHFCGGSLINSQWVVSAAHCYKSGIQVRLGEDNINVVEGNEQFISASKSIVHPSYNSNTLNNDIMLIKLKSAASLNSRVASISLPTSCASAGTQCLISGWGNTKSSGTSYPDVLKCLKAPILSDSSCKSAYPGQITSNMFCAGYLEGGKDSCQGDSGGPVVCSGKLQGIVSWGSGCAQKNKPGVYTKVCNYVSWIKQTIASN
Experimental: (§1) By substantially following the procedures described above for human thrombin, and using other human blood coagulation system serine proteases and proteases of the fibrinolytic system with the appropriate chromogenic substrates, identified below, selectivity of the compounds of the present invention with respect to the coagulation factor serine proteases and with respect to the fibrinolytic system serine proteases are evaluated as well as their substantial lack of interference with serine proteases of the fibrinolytic system. […] This would be important to the therapeutic use of such agents as an adjunct to streptokinase, t-PA or urokinase thrombolytic therapy and to the use of such agents as an endogenous fibrinolysis-sparing (with respect to t-PA and urokinase) antithrombotic agent. In addition to the lack of interference with the amidase activity of the fibrinolytic proteases, such fibrinolytic system sparing can be studied by the use of human plasma clots and their lysis by the respective fibrinolytic plasminogen activators.
(§2) Chromogenic substrates: N-Benzoyl-Ile-Glu-Gly-Arg-p-nitroanilide (for factor Xa); N-Cbz-D-Arg-Gly-Arg-p-nitroanilide (for factor IXa assay as the factor Xa substrate); Pyroglutamyl-Pro-Arg-p-nitroanilide (for Factor XIa and for aPC); H-D-Pro-Phe-Arg-p-nitroanilide (for factor XIIa); and Pyroglutamyl-Gly-Arg-p-nitroanilide (for urokinase); are purchased from KabiVitrnm, Stockholm, Sweden, or from Midwest Biotech, Fishers, Ind. Bovine trypsin is purchased from Worthington Biochemicals, Freehold, N.J., and human plasma kallikrein from Kabi Vitrum, Stockholm, Sweden. Chromogenic substrate H-D-Pro-Phe-Arg-p-nitroanilide for plasma kallikrein is purchased from Kabi Vitrum, Stockholm, Sweden. N-Benzoyl-Phe-Val-Arg-p-nitroanilide, the substrate for human thrombin and for trypsin, is synthesized according to procedures described above for the compounds of the present invention, using known methods of peptide coupling from commercially available reactants or purchased from Midwest Biotech, Fishers, Ind.

t-PA = biological target: T2, t-PA (Homo sapiens, UniProt P00750); assay: Kass for t-PA, chromogenic substrate
T2 construct: purchased American Diagnostica, Greenwich, Conn
T2 sequence (P00750 36-562): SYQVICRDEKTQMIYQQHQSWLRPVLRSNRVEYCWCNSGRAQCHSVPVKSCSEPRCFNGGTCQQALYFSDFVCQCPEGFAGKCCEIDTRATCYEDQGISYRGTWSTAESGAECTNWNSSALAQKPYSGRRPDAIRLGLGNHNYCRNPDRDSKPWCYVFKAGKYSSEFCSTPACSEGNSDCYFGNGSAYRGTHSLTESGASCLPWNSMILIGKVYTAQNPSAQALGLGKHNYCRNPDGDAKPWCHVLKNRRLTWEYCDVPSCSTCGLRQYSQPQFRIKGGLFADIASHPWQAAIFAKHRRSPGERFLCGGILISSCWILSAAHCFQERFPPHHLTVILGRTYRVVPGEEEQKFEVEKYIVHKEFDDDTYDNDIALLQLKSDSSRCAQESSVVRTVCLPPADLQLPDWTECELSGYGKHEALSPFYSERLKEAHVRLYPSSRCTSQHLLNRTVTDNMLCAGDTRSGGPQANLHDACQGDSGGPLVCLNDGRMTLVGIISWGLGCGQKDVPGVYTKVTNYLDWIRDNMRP
Experimental: as §1

Human plasma [1] = assay: Human plasma anticoagulation, thrombin time (TT); details: concentration required to double the clotting time
Experimental: (§3) Dog plasma and rat plasma is obtained from conscious mixed-breed hounds (either sex, Hazelton-LRE, Kalamazoo, Mich., U.S.A.) or from anesthetized male Sprague-Dawley rats (Harlan Sprague-Dawley, Inc., Indianapolis, Ind., U.S.A.) by venipuncture into 3.8 percent citrate. Fibrinogen is prepared from in-date ACD human blood as the fraction I-2 according to previous procedures and specifications. […] Human fibrinogen is also purchased as 98 percent pure/plasmin free from American Diagnostica, Greenwich, Conn. Coagulation reagents ACTIN, Thromboplastin, and Human plasma are from Baxter Healthcare Corp., Dade Division, Miami, Fla. Bovine thrombin from Parke-Davis ([…], Mich.) is used for coagulation assays in plasma.
(§4) Coagulation assay procedures are as previously described. […] A CoAScreener coagulation instrument (American LABor, Inc.) is used for all coagulation assay measurements. The prothrombin time (PT) is measured by adding 0.05 mL saline and 0.05 mL Thromboplastin-C reagent to 0.05 mL test plasma. The activated partial thromboplastin time (APTT) is measured by incubation of 0.05 mL test plasma with 0.05 mL Actin reagent for 120 seconds followed by 0.05 mL CaCl2 (0.02M). The thrombin time (TT) is measured by adding 0.05 mL saline and 0.05 mL thrombin (10 NIH units/mL) to 0.05 mL test plasma. The compounds of Formula I are added to human or animal plasma over a wide range of concentrations to determine prolongation effects on the APTT, PT, and TT assays. Linear extrapolations are performed to estimate the concentrations required to double the clotting time for each assay.

Human plasma [2] = assay: Human plasma anticoagulation, activated partial thromboplastin time (APTT); details: concentration required to double the clotting time
Experimental: as §3, §4

Human plasma [3] = assay: Human plasma anticoagulation, prothrombin time (PT); details: concentration required to double the clotting time
Experimental: as §3, §4

factor Xa = factor Xa (Homo sapiens, UniProt P00742); assay: Kass for factor Xa, chromogenic substrate
factor Xa, sequence (P00742 235-488 limits assumed): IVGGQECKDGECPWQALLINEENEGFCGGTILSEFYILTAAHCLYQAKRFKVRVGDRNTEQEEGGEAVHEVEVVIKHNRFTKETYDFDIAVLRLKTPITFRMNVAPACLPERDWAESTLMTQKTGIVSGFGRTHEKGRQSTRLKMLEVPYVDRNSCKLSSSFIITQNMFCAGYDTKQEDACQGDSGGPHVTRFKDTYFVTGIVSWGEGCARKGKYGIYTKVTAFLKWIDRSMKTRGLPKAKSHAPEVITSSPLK
factor Xa, sequence (P00742 41-179 partner limits assumed): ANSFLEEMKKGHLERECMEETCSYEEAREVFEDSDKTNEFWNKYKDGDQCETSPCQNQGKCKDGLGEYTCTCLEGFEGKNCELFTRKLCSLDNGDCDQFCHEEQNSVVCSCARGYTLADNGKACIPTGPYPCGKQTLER
Experimental: as §1, §2

Compound | Kass Human Thrombin (human thrombin) | Kass Trypsin (Bovine trypsin) | Kass t-PA (t-PA) | 2x Clotting time TT (Human plasma [1]) | 2x Clotting time APTT (Human plasma [2]) | 2x Clotting time PT (Human plasma [3]) | Kass Xa (factor Xa)
N=C(N)c1ccc(CNC(=O)[C@@H]2C[C@@H]3CCCC[C@@H]3N2C(=O)[C@@H]2NCC[C@@H]3CCCC[C@@H]32)cc1 (relative stereo) [Example 42, D-1-Piq-cis-Ohi-p-NHCH2 C6 H4 C(NH)NH2.2HCl] | 38. × 10^6 (L/mole) | 43. × 10^6 (L/mole) | 0.01 × 10^6 (L/mole) | 20 ng/mL | 270 ng/mL | 320 ng/mL | 
N=C(N)c1ccc(CNC(=O)[C@@H]2C[C@@H]3CCCC[C@@H]3N2C(=O)[C@H]2C[C@H]3CCCC[C@H]3CN2)cc1 (relative stereo) [Example 43, D-3-Piq-cis-Ohi-p-NHCH2 C6 H4 C(NH)NH2.2HCl] |  | 100. × 10^6 (L/mole) | 0.01 × 10^6 (L/mole) | 280 ng/mL | 1,100 ng/mL | 930 ng/mL | 
CCS(=O)(=O)N[C@H](Cc1ccccc1)C(=O)N1[C@H](C(=O)NCc2ccc(C(=N)N)cc2)C[C@@H]2CCCC[C@@H]21 (relative stereo) [Example 45, EtSO2 -Phe-cis-Ohi-p-NHCH2 C6 H4 C(NH)NH2.HCl] |  | 110. × 10^6 (L/mole) |  | 8 ng/mL | 200 ng/mL | 330 ng/mL | 
N=C(N)c1ccc(CNC(=O)[C@@H]2C[C@@H]3CCCC[C@@H]3N2C(=O)[C@@H](Cc2ccccc2)NCC(=O)O)cc1 (relative stereo) [Example 47, HOOCCH2 -D-Phe-cis-Ohi-p-NHCH2 C6 H4 C(NH)NH2.HCl] |  | 82. × 10^6 (L/mole) | 0.01 × 10^6 (L/mole) | 12. ng/mL | 140 ng/mL | 270 ng/mL | 
N=C(N)c1ccc(CNC(=O)[C@@H]2C[C@@H]3CCCC[C@@H]3N2C(=O)[C@@H](CC2CCCCC2)NCC(=O)O)cc1 (relative stereo) [Example 49, HOOCCH2 -D-Cha-cis-Ohi-p-NHCH2 C6 H4 C(NH)NH2.HCl] |  | 940. × 10^6 (L/mole) |  | 5 ng/mL | 130 ng/mL | 130 ng/mL | 
N=C(N)NCCCCCNC(=O)[C@@H]1CCCN1C(=O)[C@H](N)Cc1ccccc1 [Example 6, D-Phe-Pro-NH(CH2)5 NHC(NH)NH2.HCl] |  |  | < 0.001 | 390 ng/mL |  |  | 
N=C(N)c1cccc(CNC(=O)[C@@H]2CCCN2C(=O)[C@@H]2NCC[C@@H]3CCCC[C@@H]32)c1 [Example 25, D-1-Piq-Pro-m-NHCH2 -C6 H4 C(=NH)NH2.HCl] |  |  | 0.01 × 10^6 (L/mole) | 1,430 ng/mL | 34,600 ng/mL | 40,400 ng/mL | 
CCS(=O)(=O)N[C@H](Cc1ccccc1)C(=O)N1CCC[C@H]1C(=O)NCCc1ccc(C(=N)N)cc1 [Example 26, EtSO2 -D-Phe-Pro-p-NHCH2 CH2 -C6 H4 C(=NH)NH2.HCl] | 13. × 10^6 (L/mole) |  | 0.01 × 10^6 (L/mole) | 37 ng/mL | 870 ng/mL | 750 ng/mL | 
N=C(N)c1ccc(CCCNC(=O)[C@@H]2CCCN2C(=O)[C@@H]2NCC[C@@H]3CCCC[C@@H]32)cc1 [Example 32, 1-Piq-Pro-p-NHCH2 CH2 CH2 -C6 H4 C(=NH)NH2.HCl] |  |  | 0.01 × 10^6 (L/mole) | 3,100 ng/mL | 28,500 ng/mL | 47,800 ng/mL | 
CCS(=O)(=O)N[C@H](Cc1ccccc1)C(=O)N1CCC[C@H]1C(=O)NCc1ccc(NC(=N)N)cc1 [Example 34, EtSO2 -D-Phe-Pro-p-NHCH2 C6 H4 NHC(NH)NH2.HCl] |  |  | 0.01 × 10^6 (L/mole) | 530 ng/mL | 4,900 ng/mL | 5,500 ng/mL | 
CCS(=O)(=O)N[C@H](Cc1ccccc1)C(=O)N1CCC[C@H]1C(=O)NCCc1cccc(NC(=N)N)c1 [Example 37, EtSO2 -D-Phe-Pro-m-NHCH2 CH2 C6 H4 NHC(NH)NH2.HCl] |  |  |  | > 9,000 ng/mL | > 9,000 ng/mL | > 9,000 ng/mL | < 0.009 × 10^6 (L/mole)
N=C(N)c1ccc(CNC(=O)[C@@H]2CCCN2C(=O)[C@@H](CC2CCCCC2)NCC(=O)O)cc1 [Example 48, HOOCCH2 -D-Cha-Pro-p-NHCH2 C6 H4 C(NH)NH2.HCl] |  | 250. × 10^6 (L/mole) |  | 2. ng/mL | 33 ng/mL | 59 ng/mL | 
N=C(N)c1ccc(CNC(=O)[C@@H]2CCCN2C(=O)[C@H](N)CC2CCCCC2)cc1 [Example 51, D-Cha-Pro-p-NHCH2 C6 H4 C(NH)NH2.2HCl] |  | 27. × 10^6 (L/mole) | 0.01 × 10^6 (L/mole) | 2 ng/mL | 48 ng/mL | 110 ng/mL | 
N=C(N)c1ccc(CNC(=O)[C@@H]2CCCN2C(=O)[C@@H](CC2CCCCC2)NCCC(=O)O)cc1 [Example 52, HOOCCH2 CH2 -D-Cha-Pro-p-NHCH2 C6 H4 C(NH)NH2.HCl] |  | 47. × 10^6 (L/mole) | 0.01 × 10^6 (L/mole) | 6 ng/mL | 80 ng/mL | 170 ng/mL | 
N=C(N)c1ccc(CNC(=O)[C@@H]2CCCN2C(=O)[C@@H](CC2CCCCC2)NCC(=O)O)c(F)c1 [Example 71, HO2 CCH2 -D-Cha-Pro-4-NHCH2 -3-F-benzamidine.HCl] |  | 240. × 10^6 (L/mole) |  | 1 ng/mL | 89 ng/mL | 150 ng/mL | 
CCS(=O)(=O)N[C@H](CC1CCCCC1)C(=O)N1CCC[C@H]1C(=O)NCc1ccc(C(=N)N)cc1 [Example 80, EtSO2 -D-Cha-Pro-4-NHCH2 C6 H4 C(NH)NH2.HCl] |  | 90. × 10^6 (L/mole) |  | 4 ng/mL | 40 ng/mL | 130 ng/mL | 
D-hPro-Pro-p-NHCH2 C6 H4 C(NH)NH2.HCl [Example 17] |  |  |  | 26 ng/mL | 370 ng/mL | 400 ng/mL | 
HO2 CCH2 -D-Cha-Pro-4-NHCH2 -2-amidinothiophene.HCl [Example 65] | 4,500 × 10^6 (L/mole) | 570. × 10^6 (L/mole) |  | 1 ng/mL | 48 ng/mL |  | 
HOOCCH2 -D-Phe-Pro-p-NHCH2 C6 H4 C(NH)NH2.HCl [Example 46] |  | 48. | 0.01 | 2. ng/mL | 67 ng/mL | 77 ng/mL | 
HOOCCH2 -D-hPhe-Pro-p-NHCH2 C6 H4 C(NH)NH2.HCl [Example 87] |  |  |  | 9 ng/mL | 260 ng/mL | 310 ng/mL | 
NMI-D-Phe-Pro-Agm.HCl [Example 4] | 13. × 10^6 (L/mole) |  |  | 230 ng/mL |  |  | 
